# Test results from PMC10123561 (Signal Transduction and Targeted Therapy, 2023).
# Experiments:
# wild type SARS-CoV-2 = assay: microbe, parasite or virus in culture; format: cell-based; settings: mean ± sd
# SARS-CoV-2 = settings: hospitalized adults; cited from earlier work
# M^pro = settings: read-out: Activity: IC50; cited from earlier work
Compound,"EC50 (wild type SARS-CoV-2; Severe acute respiratory syndrome coronavirus 2, Vero C1008, Vero E6 cells)","EC50 (wild type SARS-CoV-2; Severe acute respiratory syndrome coronavirus 2, Calu-3 cells)",reduction of recovery time (SARS-CoV-2),IC50 (M^pro)
CCC(CC)COC(=O)[C@H](C)N[P@](=O)(OC[C@H]1O[C@@](C#N)(c2ccc3c(N)ncnn23)[C@H](O)[C@@H]1O)Oc1ccccc1 [Remdesivir],1010 ± 130 nM,1110 ± 170 nM,5 days,–
Cc1cc(S(=O)(=O)c2c([N+](=O)[O-])cc(C(F)(F)F)cc2[N+](=O)[O-])c(Cl)cc1Cl [D3F],–,–,–,300 nM
CCOC(=O)CC[C@H](C[C@@H]1CCNC1=O)NC(=O)[C@H](CC=C(C)C)CC(=O)[C@@H](NC(=O)[C@H](CO)NC(=O)OC(C)(C)C)C(C)C [CYV],–,–,–,80000 nM
CC(C)(C)NC(=O)[C@@H](c1cccnc1)N(C(=O)c1ccco1)c1ccc(C(C)(C)C)cc1 [0EN],–,–,–,4800 nM
